Reference: patent US10640469B2, “Polyhydroxyphthalazinone compound, preparation method thereof and use thereof” (RejuvGen Pharmaceuticals, Inc., priority 2017, dated 2020)

Assays:
ER-β receptor = ER-β receptor (Homo sapiens, UniProt Q92731); assay: Radioligand ([3H]-estradiol) competition binding to estrogen receptor, ER-β; details: [3H]-estradiol 100 nM, incubated overnight at 4° C., GF/B filtration, scintillation counting; read-out: Affinity constant of ER-β receptor
Procedure: (§1) The activity of the compound was obtained as follows: the compound was first dissolved in DMSO and formulated into 6-8 concentration gradient solutions. The estrogen receptor and radiolabeled estradiol ([^3H]-estradiol, 100 nM) were added into the buffer and mixed to prepare a reaction solution. Each compound concentration gradient solution was separately added into the reaction solution, mixed, and incubated overnight at 4° C. so that the compound and estradiol fully reacted with the estrogen receptor. Then, the TopCount NXT Liquid Scintillation Counter (Perkin Elmer) was used for the radioactivity intensity measurement after GF/B filtration. Data processing was performed according to the detected values of each concentration to obtain the affinity constant of the compound with estrogen receptor, as shown in the following table: […]

ER-α receptor = target: T1, ER-α receptor (Homo sapiens, UniProt P03372); assay: Radioligand ([3H]-estradiol) competition binding to estrogen receptor, ER-α; details: [3H]-estradiol 100 nM, incubated overnight at 4° C., GF/B filtration, scintillation counting; read-out: Affinity constant of ER-α receptor
T1 sequence (P03372 1-595): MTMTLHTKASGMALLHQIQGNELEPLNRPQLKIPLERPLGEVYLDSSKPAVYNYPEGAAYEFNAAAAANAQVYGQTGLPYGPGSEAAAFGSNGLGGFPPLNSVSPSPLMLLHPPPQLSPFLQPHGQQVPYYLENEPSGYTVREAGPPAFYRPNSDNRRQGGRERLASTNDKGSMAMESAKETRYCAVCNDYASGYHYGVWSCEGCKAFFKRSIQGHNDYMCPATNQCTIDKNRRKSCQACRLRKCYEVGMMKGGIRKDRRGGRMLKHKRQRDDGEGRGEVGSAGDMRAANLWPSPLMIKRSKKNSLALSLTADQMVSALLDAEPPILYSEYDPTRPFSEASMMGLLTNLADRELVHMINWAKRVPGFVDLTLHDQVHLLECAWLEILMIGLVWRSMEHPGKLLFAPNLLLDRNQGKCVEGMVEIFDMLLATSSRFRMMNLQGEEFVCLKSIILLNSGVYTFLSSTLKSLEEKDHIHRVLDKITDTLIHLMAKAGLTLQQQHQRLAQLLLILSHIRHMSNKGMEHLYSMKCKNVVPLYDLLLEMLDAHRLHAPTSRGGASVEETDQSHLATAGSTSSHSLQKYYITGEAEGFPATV
Procedure: as §1

Chain of ER-β receptor (Q92731 whole entry): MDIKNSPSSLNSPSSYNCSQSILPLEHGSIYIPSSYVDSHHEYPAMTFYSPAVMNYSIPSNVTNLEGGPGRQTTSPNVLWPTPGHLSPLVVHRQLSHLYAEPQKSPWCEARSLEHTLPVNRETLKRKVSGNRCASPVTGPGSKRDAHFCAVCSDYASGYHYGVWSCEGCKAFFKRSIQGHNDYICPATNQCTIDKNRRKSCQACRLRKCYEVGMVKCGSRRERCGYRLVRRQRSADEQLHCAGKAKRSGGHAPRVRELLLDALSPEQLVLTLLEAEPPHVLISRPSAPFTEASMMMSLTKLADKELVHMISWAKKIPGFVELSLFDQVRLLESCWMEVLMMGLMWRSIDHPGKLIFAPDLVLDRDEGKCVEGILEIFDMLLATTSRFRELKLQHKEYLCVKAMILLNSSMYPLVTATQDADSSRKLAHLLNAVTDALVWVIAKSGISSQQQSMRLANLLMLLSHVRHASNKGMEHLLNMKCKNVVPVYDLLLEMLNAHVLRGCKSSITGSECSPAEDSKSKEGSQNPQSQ

In the case of `O=c1c2c(O)cc(O)cc2cnn1-c1ccc(O)cc1`, the Ki (ER-β receptor) is reported as 105 nM and the Ki (ER-α receptor) is reported as 1200 nM.

For `Cc1nn(-c2ccc(O)cc2)c(=O)c2c(O)cc(O)cc12`, the Ki (ER-β receptor) was 8 nM and the Ki (ER-α receptor) was 76 nM.

`CCc1nn(-c2ccc(O)cc2)c(=O)c2c(O)cc(O)cc12` gave a Ki (ER-β receptor) of 10 nM and a Ki (ER-α receptor) of 98 nM.

Compound `O=c1c2c(O)cc(O)c(Br)c2cnn1-c1ccc(O)cc1` has a Ki (ER-β receptor) of 1500 nM and a Ki (ER-α receptor) of 3600 nM.
